PubChem BioAssay (NCI)
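Test compounds were applied to cells in 96-well plates for 48 hours at 5 doses. At the GI50, growth is halved. The concentration for full growth arrest is given as TGI.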

Key:
Test in all cases: NCI-60 cell line screen, 48 h
[1] = system: MDA-MB-231 breast
[2] = system: SN12C renal
[3] = system: SF-539 CNS
[4] = system: A498 renal
[5] = system: UACC-62 melanoma
[6] = system: A549 NSCLC
[7] = system: HCT-116 colon
[8] = system: HOP-92 NSCLC
[9] = system: OVCAR-3 ovarian
[10] = system: HCT-15 colon
[11] = system: COLO 205 colon
[12] = system: NCI-H522 lung
[13] = system: RPMI-8226 leukemia
[14] = system: TK-10 renal
[15] = system: SNB-19 CNS
[16] = system: EKVX NSCLC
[17] = system: MALME-3M melanoma
[18] = system: UO-31 renal
[19] = system: SW-620 colon
[20] = system: UACC-257 melanoma
[21] = system: CCRF-CEM leukemia
[22] = system: KM12 colon
[23] = system: IGROV1 ovarian
[24] = system: CAKI-1 renal
[25] = system: MCF7 breast
[26] = system: SF-268 CNS
[27] = system: RXF 393 renal
[28] = system: HOP-62 NSCLC

SMILES: COc1cc2c(cc1OCc1ccccc1)N=CC1C[C@@H](O)CN1C2=O (stereo not given in full)
- TGI [1]: 16.9 µM
- GI50 [2]: 5.77 µM
- TGI [2]: 24.2 µM
- GI50 [3]: 2.11 µM
- TGI [3]: 6.76 µM
- GI50 [4]: 2.06 µM
- TGI [4]: 5.25 µM
- GI50 [5]: 0.824 µM
- TGI [5]: 17.1 µM
- GI50 [6]: 19.2 µM
- TGI [6]: > 100 µM
- GI50 [7]: 9.77 µM
- TGI [7]: 42.2 µM
- GI50 [8]: 3.99 µM
- TGI [8]: 39 µM
- GI50 [9]: 2.64 µM
- TGI [9]: 18.2 µM
- GI50 [10]: 15.2 µM
- TGI [10]: > 82.1 µM
- GI50 [11]: 3.77 µM
- TGI [11]: > 30.9 µM
- GI50 [12]: 1.4 µM
- TGI [12]: 7.43 µM
- GI50 [13]: 2.57 µM
- TGI [13]: > 28 µM
- GI50 [14]: 2.37 µM
- TGI [14]: 12.7 µM
- GI50 [15]: 6.52 µM
- TGI [15]: > 100 µM
- GI50 [16]: 24.2 µM
- TGI [16]: 56.4 µM
- GI50 [17]: 9.08 µM
- TGI [17]: 26 µM
- GI50 [18]: 3.52 µM
- TGI [18]: 19.2 µM
- GI50 [19]: 3.16 µM
- TGI [19]: 31.3 µM
- GI50 [20]: 19.2 µM
- TGI [20]: > 59.6 µM
- GI50 [21]: 1.79 µM
- TGI [21]: 12.2 µM
- GI50 [22]: 4.04 µM
- TGI [22]: 32 µM
- GI50 [23]: 6.89 µM
- TGI [23]: > 60.7 µM
- GI50 [24]: 1.24 µM
- TGI [24]: 6.78 µM
- GI50 [25]: 5.06 µM
- TGI [25]: > 100 µM
- GI50 [26]: 3.41 µM
- TGI [26]: 26.7 µM
- GI50 [27]: 1.7 µM
- TGI [27]: 4.95 µM
- GI50 [28]: 2.4 µM
- TGI [28]: 9.52 µM
